Source: the supplement of paper PMC10307832

What was measured:
Experiment in all cases: relative viability (nuclei count vs DMSO), 5 days (fraction); higher = more cells survive
ABC-1 = tested on: ABC-1
Outline: (§1)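 Lung cancer cell lines in 1536-well plates got either a single drug or a fixed anchor-drug dose together with five library-drug doses (not always all listed) in √10 steps, by pin tool, on the day after seeding. Nuclei were counted after 5 days, and relative viability is the treated-to-vehicle ratio of nuclei counts. Values are medians of duplicate plates.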

NCI-H2009 = tested on: NCI-H2009
Outline: as §1

SK-MES-1 = tested on: SK-MES-1
Outline: as §1

NCI-H1993 = tested on: NCI-H1993
Outline: as §1

NCI-H596 = tested on: NCI-H596
Outline: as §1

SK-LU-1 = tested on: SK-LU-1
Outline: as §1

LK-2 = tested on: LK-2
Outline: as §1

NCI-H2228 = tested on: NCI-H2228
Outline: as §1

NCI-H2170 = tested on: NCI-H2170
Outline: as §1

NCI-H1793 = tested on: NCI-H1793
Outline: as §1

A-427 = tested on: A-427
Outline: as §1

NCI-H1944 = tested on: NCI-H1944
Outline: as §1

SW 1573 = tested on: SW 1573
Outline: as §1

NCI-H727 = tested on: NCI-H727
Outline: as §1

COR-L23 = tested on: COR-L23
Outline: as §1

HARA = tested on: HARA
Outline: as §1

HOP-62 = tested on: HOP-62
Outline: as §1

SW 900 = tested on: SW 900
Outline: as §1

NCI-H3122 = tested on: NCI-H3122
Outline: as §1

EMC-BAC-2 = tested on: EMC-BAC-2
Outline: as §1

PC-3 [JPC-3] = tested on: PC-3 [JPC-3]
Outline: as §1

LXF-289 = tested on: LXF-289
Outline: as §1

NC(=O)Nc1cc(-c2cccc(F)c2)sc1C(=O)N[C@H]1CCCNC1 [AZD7762] + O=C(CCCCCCC(=O)Nc1ccccc1)NO [Vorinostat] (partner 1 µM)
relative viability (ABC-1; first compound 0.01 µM): 0.847 | relative viability (ABC-1; first compound 0.03162 µM): 1.47 | relative viability (ABC-1; first compound 0.1 µM): 1.04 | relative viability (ABC-1; first compound 0.3162 µM): 0.976 | relative viability (ABC-1; first compound 1 µM): 0.314 | relative viability (NCI-H2009; first compound 0.01 µM): 0.794 | relative viability (NCI-H2009; first compound 0.03162 µM): 0.733 | relative viability (NCI-H2009; first compound 0.1 µM): 0.693 | relative viability (NCI-H2009; first compound 0.3162 µM): 0.688 | relative viability (NCI-H2009; first compound 1 µM): 0.625 | relative viability (SK-MES-1; first compound 0.01 µM): 1.12 | relative viability (SK-MES-1; first compound 0.03162 µM): 1.01 | relative viability (SK-MES-1; first compound 0.1 µM): 0.841 | relative viability (SK-MES-1; first compound 0.3162 µM): 0.45 | relative viability (SK-MES-1; first compound 1 µM): 0.192 | relative viability (NCI-H1993; first compound 0.01 µM): 0.764 | relative viability (NCI-H1993; first compound 0.03162 µM): 0.729 | relative viability (NCI-H1993; first compound 0.1 µM): 0.725 | relative viability (NCI-H1993; first compound 0.3162 µM): 0.813 | relative viability (NCI-H1993; first compound 1 µM): 0.391 | relative viability (NCI-H596; first compound 0.01 µM): 0.691 | relative viability (NCI-H596; first compound 0.03162 µM): 0.803 | relative viability (NCI-H596; first compound 0.1 µM): 0.716 | relative viability (NCI-H596; first compound 0.3162 µM): 0.593 | relative viability (NCI-H596; first compound 1 µM): 0.594 | relative viability (SK-LU-1; first compound 0.01 µM): 0.909 | relative viability (SK-LU-1; first compound 0.03162 µM): 0.663 | relative viability (SK-LU-1; first compound 0.1 µM): 0.563 | relative viability (SK-LU-1; first compound 0.3162 µM): 0.273 | relative viability (SK-LU-1; first compound 1 µM): 0.276 | relative viability (LK-2; first compound 0.01 µM): 0.307 | relative viability (LK-2; first compound 0.03162 µM): 0.316 | relative viability (LK-2; first compound 0.1 µM): 0.272 | relative viability (LK-2; first compound 0.3162 µM): 0.468 | relative viability (LK-2; first compound 1 µM): 0.283 | relative viability (NCI-H2228; first compound 0.01 µM): 1.06 | relative viability (NCI-H2228; first compound 0.03162 µM): 0.443 | relative viability (NCI-H2228; first compound 0.1 µM): 0.59 | relative viability (NCI-H2228; first compound 0.3162 µM): 0.383 | relative viability (NCI-H2228; first compound 1 µM): 0.299 | relative viability (NCI-H2170; first compound 0.01 µM): 0.81 | relative viability (NCI-H2170; first compound 0.03162 µM): 0.834 | relative viability (NCI-H2170; first compound 0.1 µM): 0.766 | relative viability (NCI-H2170; first compound 0.3162 µM): 0.772 | relative viability (NCI-H2170; first compound 1 µM): 0.824 | relative viability (NCI-H1793; first compound 0.01 µM): 0.692 | relative viability (NCI-H1793; first compound 0.03162 µM): 0.878 | relative viability (NCI-H1793; first compound 0.1 µM): 0.981 | relative viability (NCI-H1793; first compound 0.3162 µM): 0.953 | relative viability (NCI-H1793; first compound 1 µM): 0.284 | relative viability (A-427; first compound 0.01 µM): 0.875 | relative viability (A-427; first compound 0.03162 µM): 0.874 | relative viability (A-427; first compound 0.1 µM): 0.857 | relative viability (A-427; first compound 0.3162 µM): 0.728 | relative viability (A-427; first compound 1 µM): 0.41 | relative viability (NCI-H1944; first compound 0.01 µM): 0.544 | relative viability (NCI-H1944; first compound 0.03162 µM): 0.654 | relative viability (NCI-H1944; first compound 0.1 µM): 0.611 | relative viability (NCI-H1944; first compound 0.3162 µM): 0.568 | relative viability (NCI-H1944; first compound 1 µM): 0.295 | relative viability (SW 1573; first compound 0.01 µM): 1.16 | relative viability (SW 1573; first compound 0.03162 µM): 0.994 | relative viability (SW 1573; first compound 0.1 µM): 0.821 | relative viability (SW 1573; first compound 0.3162 µM): 0.648 | relative viability (SW 1573; first compound 1 µM): 0.102 | relative viability (NCI-H727; first compound 0.01 µM): 1.18 | relative viability (NCI-H727; first compound 0.03162 µM): 1.26 | relative viability (NCI-H727; first compound 0.1 µM): 1.2 | relative viability (NCI-H727; first compound 0.3162 µM): 1.24 | relative viability (NCI-H727; first compound 1 µM): 0.868 | relative viability (COR-L23; first compound 0.01 µM): 0.562 | relative viability (COR-L23; first compound 0.03162 µM): 0.423 | relative viability (COR-L23; first compound 0.1 µM): 0.246 | relative viability (COR-L23; first compound 0.3162 µM): 0.129 | relative viability (COR-L23; first compound 1 µM): 0.0864 | relative viability (HARA; first compound 0.01 µM): 0.454 | relative viability (HARA; first compound 0.03162 µM): 0.483 | relative viability (HARA; first compound 0.1 µM): 0.509 | relative viability (HARA; first compound 0.3162 µM): 0.503 | relative viability (HARA; first compound 1 µM): 0.451 | relative viability (HOP-62; first compound 0.01 µM): 0.571 | relative viability (HOP-62; first compound 0.03162 µM): 0.68 | relative viability (HOP-62; first compound 0.1 µM): 0.701 | relative viability (HOP-62; first compound 0.3162 µM): 0.607 | relative viability (HOP-62; first compound 1 µM): 0.237 | relative viability (SW 900; first compound 0.01 µM): 0.643 | relative viability (SW 900; first compound 0.03162 µM): 0.445 | relative viability (SW 900; first compound 0.1 µM): 0.545 | relative viability (SW 900; first compound 0.3162 µM): 0.262 | relative viability (SW 900; first compound 1 µM): 0.275 | relative viability (NCI-H3122; first compound 0.01 µM): 0.936 | relative viability (NCI-H3122; first compound 0.03162 µM): 0.927 | relative viability (NCI-H3122; first compound 0.1 µM): 1.06 | relative viability (NCI-H3122; first compound 0.3162 µM): 0.925 | relative viability (NCI-H3122; first compound 1 µM): 0.973 | relative viability (EMC-BAC-2; first compound 0.01 µM): 0.416 | relative viability (EMC-BAC-2; first compound 0.03162 µM): 0.475 | relative viability (EMC-BAC-2; first compound 0.1 µM): 0.523 | relative viability (EMC-BAC-2; first compound 0.3162 µM): 0.456 | relative viability (EMC-BAC-2; first compound 1 µM): 0.456 | relative viability (PC-3 [JPC-3]; first compound 0.01 µM): 0.644 | relative viability (PC-3 [JPC-3]; first compound 0.03162 µM): 0.888 | relative viability (PC-3 [JPC-3]; first compound 0.1 µM): 0.759 | relative viability (PC-3 [JPC-3]; first compound 0.3162 µM): 0.607 | relative viability (PC-3 [JPC-3]; first compound 1 µM): 0.501 | relative viability (LXF-289; first compound 0.01 µM): 0.67 | relative viability (LXF-289; first compound 0.03162 µM): 0.802 | relative viability (LXF-289; first compound 0.1 µM): 0.77 | relative viability (LXF-289; first compound 0.3162 µM): 0.78 | relative viability (LXF-289; first compound 1 µM): 0.83
